Test results: the NIST ThermoML archive (doi:10.1021/je100256w)

Test: cn = amount concentration of the nth substance listed, in mol/dm3
Details: 101 kPa, Liquid, Dip Cell

CCCCCCCCCCCCCCCC[N+](C)(C)CCCCCC[N+](C)(C)CCCCCCCCCCCCCCCC.[Br-].[Br-] + O
electrical conductivity [S/m]
Details | 298 K | 303 K | 308 K | 313 K
c1 = 3.3e-06 | 7.1e-08 | 7.2e-08 | 7.3e-08 | 7.5e-08
c1 = 6.6e-06 | 1.31e-07 | 1.53e-07 | 1.22e-07 | 1.33e-07
c1 = 9.9e-06 | 2.04e-07 | 2.14e-07 | 2.09e-07 | 1.92e-07
c1 = 1.32e-05 | 2.59e-07 | 2.69e-07 | 2.84e-07 | 2.42e-07
c1 = 1.64e-05 | 3.27e-07 | 3.46e-07 | 3.66e-07 | 3.21e-07
c1 = 1.96e-05 | 3.99e-07 | 4.09e-07 | 4.21e-07 | 3.95e-07
c1 = 2.28e-05 | 4.86e-07 | 5.06e-07 | 5.18e-07 | 4.69e-07
c1 = 2.6e-05 | 5.26e-07 | 5.46e-07 | 5.67e-07 | 5.41e-07
c1 = 2.91e-05 | 6.16e-07 | 6.36e-07 | 6.57e-07 | 6.23e-07
c1 = 3.23e-05 | 6.92e-07 | 7.02e-07 | 7.22e-07 | 6.81e-07
c1 = 3.54e-05 | 7.86e-07 | 8.06e-07 | 8.22e-07 | 7.7e-07
c1 = 3.85e-05 | 8.34e-07 | 8.54e-07 | 8.91e-07 | 8.38e-07
c1 = 4.15e-05 | 9.29e-07 | 9.49e-07 | 9.65e-07 | 9.01e-07
c1 = 4.46e-05 | 9.65e-07 | 9.95e-07 | 1.042e-06 | 9.69e-07
c1 = 4.76e-05 | 1.031e-06 | 1.031e-06 | 1.071e-06 | 1.041e-06
c1 = 5.06e-05 | 1.084e-06 | 1.084e-06 | 1.113e-06 | 1.113e-06
c1 = 5.36e-05 | 1.145e-06 | 1.145e-06 | 1.17e-06 | 1.18e-06
c1 = 5.66e-05 | 1.186e-06 | 1.206e-06 | 1.226e-06 | 1.246e-06
c1 = 5.96e-05 | 1.209e-06 | 1.249e-06 | 1.269e-06 | 1.299e-06
c1 = 6.25e-05 | 1.272e-06 | 1.292e-06 | 1.312e-06 | 1.352e-06
c1 = 6.54e-05 | 1.326e-06 | 1.356e-06 | 1.376e-06 | 1.396e-06
c1 = 6.83e-05 | 1.359e-06 | 1.379e-06 | 1.399e-06 | 1.447e-06
c1 = 7.12e-05 | 1.396e-06 | 1.416e-06 | 1.456e-06 | 1.486e-06
c1 = 7.41e-05 | 1.437e-06 | 1.457e-06 | 1.477e-06 | 1.541e-06
c1 = 7.69e-05 | 1.462e-06 | 1.482e-06 | 1.512e-06 | 1.59e-06

O=C([O-])c1ccccc1.[Na+] [sodium benzoate] + O
electrical conductivity [S/m]
Details | 298 K | 303 K | 308 K | 313 K
c1 = 1.98e-05 | 1.95e-05 | 1.613e-05 | 1.97e-05 | 2.22e-05
c1 = 3.92e-05 | 3.33e-05 | 3.53e-05 | 3.66e-05 | 4.21e-05
c1 = 5.82e-05 | 4.76e-05 | 5.11e-05 | 5.48e-05 | 5.98e-05
c1 = 7.69e-05 | 5.86e-05 | 6.55e-05 | 6.76e-05 | 7.77e-05
c1 = 9.52e-05 | 7.22e-05 | 7.97e-05 | 8.72e-05 | 9.3e-05
c1 = 0.0001221 | 8.72e-05 | 9.91e-05 | 0.000107 | 0.000116
c1 = 0.0001567 | 0.00011 | 0.000121 | 0.000133 | 0.000143
c1 = 0.00019 | 0.0001285 | 0.00013 | 0.000157 | 0.000167
c1 = 0.0002222 | 0.000145 | 0.000161 | 0.000178 | 0.00019
c1 = 0.0002533 | 0.000161 | 0.000175 | 0.000197 | 0.0002038
c1 = 0.0002906 | 0.00018 | 0.000199 | 0.000206 | 0.000221
c1 = 0.0003264 | 0.000198 | 0.000203 | 0.000224 | 0.000243
c1 = 0.0003607 | 0.000199 | 0.000217 | 0.000243 | 0.000262
c1 = 0.0004 | 0.000216 | 0.000235 | 0.000261 | 0.000285
c1 = 0.0004375 | 0.000231 | 0.000254 | 0.000284 | 0.000307
c1 = 0.0004791 | 0.000245 | 0.000271 | 0.000304 | 0.000332
c1 = 0.000524 | 0.000266 | 0.000291 | 0.000326 | 0.000354
c1 = 0.0005663 | 0.000293 | 0.000307 | 0.000338 | 0.000375
c1 = 0.0006063 | 0.000297 | 0.000324 | 0.000362 | 0.00039
c1 = 0.0006532 | 0.000314 | 0.000341 | 0.000381 | 0.000412
c1 = 0.0007055 | 0.000326 | 0.00036 | 0.000393 | 0.000439
c1 = 0.0007616 | 0.000349 | 0.000379 | 0.000428 | 0.000462
c1 = 0.0008131 | 0.000366 | 0.000398 | 0.000446 | 0.000486
c1 = 0.0008669 | 0.000381 | 0.000414 | 0.000463 | 0.000507
c1 = 0.0009218 | 0.000398 | 0.000432 | 0.000483 | 0.000526
c1 = 0.000977 | 0.000412 | 0.000443 | 0.000493 | 0.000547
c1 = 0.001027 | 0.000431 | 0.000456 | 0.000514 | 0.000563

O=C([O-])c1ccccc1O.[Na+] [sodium salicylate] + O
electrical conductivity [S/m]
Details | 298 K | 303 K | 308 K | 313 K
c1 = 3.09e-05 | 2.48e-05 | 2.4e-05 | 2.71e-05 | 3.69e-05
c1 = 6.1e-05 | 4.76e-05 | 4.74e-05 | 5.24e-05 | 6.8e-05
c1 = 9.04e-05 | 6.66e-05 | 6.95e-05 | 7.56e-05 | 9.61e-05
c1 = 0.000119 | 8.34e-05 | 8.73e-05 | 9.64e-05 | 0.000122
c1 = 0.000147 | 0.000102 | 0.000107 | 0.000118 | 0.000149
c1 = 0.0001744 | 0.000118 | 0.000125 | 0.000136 | 0.000173
c1 = 0.0002064 | 0.000135 | 0.000144 | 0.000157 | 0.000197
c1 = 0.0002376 | 0.000152 | 0.000163 | 0.000176 | 0.000208
c1 = 0.0002778 | 0.000173 | 0.000185 | 0.0002 | 0.000237
c1 = 0.0003166 | 0.000192 | 0.000203 | 0.000209 | 0.000264
c1 = 0.0003541 | 0.000204 | 0.00021 | 0.000228 | 0.000286
c1 = 0.0003903 | 0.00021 | 0.000227 | 0.000248 | 0.000309
c1 = 0.0004339 | 0.000226 | 0.000248 | 0.00027 | 0.000327
c1 = 0.0004757 | 0.000244 | 0.000266 | 0.00029 | 0.000363
c1 = 0.0005237 | 0.000261 | 0.000288 | 0.000315 | 0.000393
c1 = 0.0005695 | 0.000281 | 0.000307 | 0.000338 | 0.000419
c1 = 0.0006132 | 0.000297 | 0.000325 | 0.000357 | 0.000441
c1 = 0.000655 | 0.000311 | 0.000342 | 0.000373 | 0.000463
c1 = 0.0007014 | 0.000322 | 0.00036 | 0.000394 | 0.000486
c1 = 0.0007517 | 0.000344 | 0.000378 | 0.000412 | 0.000511
c1 = 0.0007993 | 0.00036 | 0.000395 | 0.000434 | 0.000533
c1 = 0.0008444 | 0.000373 | 0.000409 | 0.000457 | 0.000547
c1 = 0.0008974 | 0.000389 | 0.000422 | 0.000482 | 0.000572
c1 = 0.0009472 | 0.000401 | 0.000448 | 0.000502 | 0.000592
c1 = 0.001003 | 0.000417 | 0.000459 | 0.000527 | 0.000614
c1 = 0.001063 | 0.000433 | 0.000483 | 0.000551 | 0.000635
c1 = 0.001123 | 0.00045 | 0.000492 | 0.000561 | 0.000656
c1 = 0.001181 | 0.000464 | 0.000515 | 0.000594 | 0.000674
c1 = 0.001241 | 0.000474 | 0.000535 | 0.000613 | 0.000692
c1 = 0.001301 | 0.000494 | 0.000552 | 0.000631 | 0.000712

CCCCCCCCCCCCCCCC[N+](C)(C)CCCC[N+](C)(C)CCCCCCCCCCCCCCCC.[Br-].[Br-] + O
electrical conductivity [S/m]
Details | 298 K | 303 K | 308 K | 313 K
c1 = 3.3e-06 | 6.6e-05 | 6.6e-05 | 6.7e-05 | 6.8e-05
c1 = 6.6e-06 | 0.000121 | 0.000134 | 0.00015 | 0.00016
c1 = 9.9e-06 | 0.000187 | 0.000196 | 0.000207 | 0.000227
c1 = 1.32e-05 | 0.000256 | 0.000274 | 0.00029 | 0.000301
c1 = 1.64e-05 | 0.000326 | 0.000336 | 0.000346 | 0.000372
c1 = 1.96e-05 | 0.000397 | 0.000407 | 0.000429 | 0.000449
c1 = 2.28e-05 | 0.000463 | 0.000486 | 0.000507 | 0.000527
c1 = 2.6e-05 | 0.000539 | 0.000539 | 0.000559 | 0.000575
c1 = 2.91e-05 | 0.000615 | 0.000626 | 0.000642 | 0.000666
c1 = 3.23e-05 | 0.00067 | 0.000679 | 0.000695 | 0.000715
c1 = 3.54e-05 | 0.000736 | 0.000746 | 0.000766 | 0.000787
c1 = 3.85e-05 | 0.000789 | 0.000799 | 0.000799 | 0.000851
c1 = 4.15e-05 | 0.000856 | 0.000866 | 0.000889 | 0.000901
c1 = 4.46e-05 | 0.000916 | 0.000926 | 0.000946 | 0.000966
c1 = 4.76e-05 | 0.000962 | 0.000985 | 0.001 | 0.00103
c1 = 5.06e-05 | 0.001 | 0.00102 | 0.00105 | 0.00108
c1 = 5.36e-05 | 0.00105 | 0.00106 | 0.00108 | 0.0011
c1 = 5.66e-05 | 0.0011 | 0.00112 | 0.00113 | 0.00115
c1 = 5.96e-05 | 0.00116 | 0.00118 | 0.0012 | 0.00122
c1 = 6.25e-05 | 0.00121 | 0.00123 | 0.00125 | 0.00127
c1 = 6.54e-05 | 0.00126 | 0.00126 | 0.00128 | 0.00133
c1 = 6.83e-05 | 0.0013 | 0.00131 | 0.00133 | 0.00137
c1 = 7.12e-05 | 0.00134 | 0.00137 | 0.00138 | 0.0014
c1 = 7.41e-05 | 0.0014 | – | – | –
